Test results from the supplement of paper PMC10307832.

compound: C1CSC2=C(C(=O)N1)SC3=C2C=C(C=C3)O [kb NB 142-70] + NC(=O)Nc1cc(-c2cccc(F)c2)sc1C(=O)N[C@H]1CCCNC1 [AZD7762] (partner 0.2 µM); assay: relative viability (nuclei count vs DMSO), 5 days (fraction); higher = more cells survive; details: first compound 0.1 µM
Outline: (§1)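 Lung cancer cell lines were pin-tool dosed in 1536-well plates on the day after seeding, with either a lone drug or a fixed anchor-drug dose plus five library-drug doses (not always all listed) in √10 steps. Nuclei were counted on 4× images after 5 days. Relative viability is the ratio of treated-well to vehicle-well nuclei counts, with each value a median of duplicate plates.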

| Cell Line | relative viability |
| --- | --- |
| NCI-H1666 | 0.879 |
| NCI-H596 | 1.13 |
| LK-2 | 0.308 |
| NCI-H2087 | 1.38 |
| NCI-H1648 | 0.585 |
| H3255 | 0.86 |
| LOU-NH91 | 0.767 |
| HCC-44 | 0.99 |
| NCI-H522 | 0.959 |
| HCC-78 | 0.616 |
| NCI-H1792 | 0.803 |

same assay, conditions: first compound 1 µM

| Cell Line | relative viability |
| --- | --- |
| NCI-H2342 | 0.49 |
| NCI-H727 | 0.688 |
| NCI-H1703 | 0.134 |
| NCI-H1993 | 0.611 |
| NCI-H838 | 0.925 |
| LCLC-103H | 0.782 |
| NCI-H2126 | 1.03 |
| EMC-BAC-2 | 1.15 |
| NCI-H2085 | 1.08 |
| HCC-366 | 0.572 |
| NCI-H1666 | 0.714 |
| NCI-H596 | 1.09 |
| LK-2 | 0.319 |
| NCI-H2087 | 1.45 |
| NCI-H1648 | 0.811 |
| H3255 | 0.925 |
| LOU-NH91 | 0.762 |
| HCC-44 | 1.06 |
| NCI-H522 | 0.753 |
| HCC-78 | 0.629 |
| NCI-H1792 | 0.907 |

same assay, conditions: first compound 3.162 µM

| Cell Line | relative viability |
| --- | --- |
| NCI-H2342 | 0.518 |
| NCI-H727 | 0.769 |
| NCI-H1703 | 0.134 |
| NCI-H1993 | 1.03 |
| NCI-H838 | 1 |
| LCLC-103H | 0.894 |
| NCI-H2126 | 1.08 |
| EMC-BAC-2 | 0.731 |
| NCI-H2085 | 0.77 |
| HCC-366 | 0.734 |
| NCI-H1666 | 0.89 |
| NCI-H596 | 1.09 |
| LK-2 | 0.329 |
| NCI-H2087 | 1.18 |
| NCI-H1648 | 0.933 |
| H3255 | 0.999 |
| LOU-NH91 | 0.637 |
| HCC-44 | 1.06 |
| NCI-H522 | 0.746 |
| HCC-78 | 0.684 |
| NCI-H1792 | 0.857 |

compound: C1CSC2=C(C(=O)N1)SC3=C2C=C(C=C3)O [kb NB 142-70] + O=C(CCCCCCC(=O)Nc1ccccc1)NO [Vorinostat] (partner 1 µM); assay: as above; details: first compound 0.1 µM
Outline: as §1

| Cell Line | relative viability |
| --- | --- |
| NCI-H2342 | 0.858 |
| NCI-H727 | 1.35 |
| NCI-H1650 | 0.656 |
| NCI-H1993 | 0.921 |
| SW 1573 | 0.655 |
| NCI-H838 | 0.782 |
| LCLC-103H | 0.856 |
| NCI-H520 | 0.775 |
| NCI-H2126 | 0.755 |
| EMC-BAC-2 | 0.556 |
| NCI-H2085 | 0.772 |
| HCC-366 | 0.473 |
| NCI-H1666 | 1.1 |
| NCI-H596 | 0.656 |
| LK-2 | 0.417 |
| NCI-H2087 | 0.506 |

| Cell Line | relative viability |
| --- | --- |
| NCI-H1648 | 0.356 |
| SK-MES-1 | 1.09 |
| H3255 | 0.973 |
| COR-L23 | 0.515 |
| COR-L 105 | 0.812 |
| IA-LM | 0.957 |
| LOU-NH91 | 0.915 |
| HCC-44 | 1.09 |
| NCI-H522 | 0.983 |
| HCC-78 | 0.407 |
| NCI-H2009 | 0.724 |
| NCI-H661 | 0.761 |
| SK-LU-1 | 0.831 |
| NCI-H2228 | 0.988 |
| NCI-H2023 | 0.613 |

same assay, conditions: first compound 1 µM

| Cell Line | relative viability |
| --- | --- |
| NCI-H2342 | 0.782 |
| NCI-H727 | 1.18 |
| NCI-H1650 | 0.569 |
| NCI-H1993 | 0.844 |
| SW 1573 | 0.426 |
| NCI-H838 | 0.77 |
| LCLC-103H | 0.873 |
| NCI-H520 | 0.681 |
| NCI-H2126 | 0.796 |
| EMC-BAC-2 | 0.472 |
| NCI-H2085 | 0.857 |
| HCC-366 | 0.372 |
| NCI-H1666 | 1.05 |
| NCI-H596 | 0.67 |
| LK-2 | 0.279 |
| NCI-H2087 | 0.687 |

| Cell Line | relative viability |
| --- | --- |
| NCI-H1648 | 0.345 |
| SK-MES-1 | 1.21 |
| H3255 | 0.864 |
| COR-L23 | 0.428 |
| COR-L 105 | 0.831 |
| IA-LM | 0.994 |
| LOU-NH91 | 0.913 |
| HCC-44 | 1.14 |
| NCI-H522 | 0.835 |
| HCC-78 | 0.602 |
| NCI-H2009 | 0.95 |
| NCI-H661 | 0.755 |
| SK-LU-1 | 0.642 |
| NCI-H2228 | 0.557 |
| NCI-H2023 | 0.667 |

same assay, conditions: first compound 3.162 µM

| Cell Line | relative viability |
| --- | --- |
| NCI-H2342 | 0.649 |
| NCI-H727 | 1.24 |
| NCI-H1650 | 0.425 |
| NCI-H1993 | 0.727 |
| SW 1573 | 0.327 |
| NCI-H838 | 0.778 |
| LCLC-103H | 0.877 |
| NCI-H520 | 0.304 |
| NCI-H2126 | 0.805 |
| EMC-BAC-2 | 0.16 |
| NCI-H2085 | 0.483 |
| HCC-366 | 0.231 |
| NCI-H1666 | 0.976 |
| NCI-H596 | 0.538 |
| LK-2 | 0.219 |
| NCI-H2087 | 0.423 |

| Cell Line | relative viability |
| --- | --- |
| NCI-H1648 | 0.423 |
| SK-MES-1 | 0.567 |
| H3255 | 0.842 |
| COR-L23 | 0.214 |
| COR-L 105 | 0.776 |
| IA-LM | 1.16 |
| LOU-NH91 | 0.601 |
| HCC-44 | 1.21 |
| NCI-H522 | 0.794 |
| HCC-78 | 0.483 |
| NCI-H2009 | 0.688 |
| NCI-H661 | 0.767 |
| SK-LU-1 | 0.371 |
| NCI-H2228 | 0.512 |
| NCI-H2023 | 0.343 |

compound: NCC(=O)Nc1ccc(-n2nc(C(F)(F)F)cc2-c2ccc3c(ccc4ccccc43)c2)cc1 + Cc1cc(Nc2cc(N3CCN(C)CC3)nc(Sc3ccc(NC(=O)C4CC4)cc3)n2)n[nH]1 [Tozasertib] (partner 0.1 µM); assay: as above; details: first compound 0.02 µM
Outline: as §1

| Cell Line | relative viability |
| --- | --- |
| NCI-H2342 | 0.652 |
| NCI-H1623 | 0.407 |
| NCI-H727 | 0.648 |
